Laboratory results: patent US20070196360A1, “SUCCINIMIDE AND MALEIMIDE DERIVATIVES AND THEIR USE AS TOPOISOMERASE II CATALYTIC INHIBITORS” (TOPOTARGET A/S, priority 2001, published 2007)
pIC50: −log10 of the molar value. Entries after “also recorded” stand apart in the source; their conditions may differ. Read-outs that look alike come from different tables or passages of the source. Marks after values point to notes of the source that are not given here.

Assays:
[1] = system: cultured human cancer cells; test: Clonogenic assay (cytotoxicity; antagonism of topoisomerase II poison cytotoxicity); details: for inhibition of the toxicity of the classical poisons (protection): poisons VP16, DAU, IDA; for pIC50: Homo sapiens, read-out: IC50 (clonogenic assay)
Source text: The information derived from the clonogenic assay is cytotoxicity.
A 3-week clonogenic assay is used. […] The number of cells is adjusted to obtain 2000 to 3000 colonies in the control dishes. Finally, the colonies are counted.

[2] = target: T1, purified topoisomerase II α (Homo sapiens, UniProt P11388); test: Decatenation assay (kDNA decatenation); assay type: biochemical
Source text: The decatenation assay is a direct measurement of a given compounds inhibitory action on purified topoisomerase II enzyme. The general role of the topoisomerase II enzyme in living cells is to cause decatenation of catenated DNA during cell division. If a compound is able to inhibit this decatenation, the compound is an inhibitor of the topoisomerase II enzyme. While this assay is capable of determining whether a given compound is active against topoisomerase II, information concerning the exact mode of action is not provided.
Topoisomerase II catalytic activity is measured by kDNA decatenation. ^3H labelled kDNA is isolated from Crithidia fasciculata (ATCC, Manassas, Va.) as described in (24). Briefly, relevant concentrations of the test compound in buffer (50 mM Tris-Cl, pH8, 120 mM KCl, 10 mM MgCl2, 1.0 mM ATP, […]) and purified topoisomerase II α is incubated with […] for 15 min at 37° C. in a final volume of 20 μl. After addition of stop buffer/loading dye mix (5% Sarkosyl, 0.0025% bromophenol blue, 25% glycerol), samples are loaded on 1% agarose/0.5% ethidium bromide gels and run in TBE buffer containing […] ethidium bromide at 100V for approximately 50 min and photographed under UV light. In addition, loading wells are cut out and scintillation counted to obtain numerical values. These values are then plotted against drug concentration to obtain dose-response curves enabling the determination of IC50 values for individual compounds.

OC—NYH cells = test: Alkaline elution (single strand DNA breaks, SSBs)
Method: This assay thus provides information concerning a given compounds ability to cause (or antagonize in the case of topoisomerase II catalytic inhibitors in the combination with classical topoisomerase II poisons) DNA damage in intact cells.
The assays for SSBs and for DPCs (DNA-protein cross-links) are performed according to Kohn et. al (23).
For measurement of single-strand breaks (SSBs), L1210 cells used as internal standard are exposed to 100 μM H2O2 for 60 min on ice, corresponding to an irradiation dose of 300 rad as described by Szmigiero and Studzian (25). OC—NYH cells are incubated in medium supplemented with the indicated drug at 37° C. for the specified periods, washed in 10 mL ice-cold PBS and then lysed on the filter (Nucleopore, 2.0 μM pore size) with 5 mL of SDS-EDTA lysis solution (2% SDS, 0.1 glycine and 0.025 M Na2EDTA) at pH 10, followed by addition of 1.5 mL SDS-EDTA lysis solution supplemented with 0.5 mg/mL proteinase K. Mixing of standard and experimental cells is done immediately prior to lysis. […] Fractions are collected at 20-min intervals for 2 h. Filters are treated with 400 μL 1 N HCl for 1 h at 60° C., cooled and 0.4 M NaOH is added prior to scintillation counting.

[3] = target: T1, purified topoisomerase II α; test: Plasmid cleavage assay; assay type: biochemical
Method: The plasmid cleavage assay is capable of assessing wether a given compound stimulates topoisomerase II mediated DNA cleavage in the test tube. A modification of the protocol described in (Burden et al., 2001) is used. 350 ng purified human topoisomerase II α, 400 ng pUC18 DNA, and increasing concentrations of drugs were incubated for 6 min at 37° C. in 20 μl topoisomerase II cleavage buffer (10 mM TRIS-HCL pH 7.9, 50 mM NaCl, 50 mM KCl, 5 mM CaCl2, 1 mM EDTA, 15 μg/ml BSA and 1 mM Na2ATP, all from Sigma Chemical Co., St. Louis, Mo., USA). Next, the cleavable complex was trapped by adding 2 μl 10% SDS. After vigorous vortexing 1.5 μl 0.25 M EDTA and 2 μl proteinase K (0.8 μg/ml) in proteinase buffer (50 mM Tris-HCL pH=7.9, 1 mM CaCl2) was added and the samples vortexed. After a 30 min incubation at 45° C., 5 μl loading buffer (5% Sarkosyl, 0.0025% bromophenol blue, 25% glycerol) was added and the samples were exposed to 70° C. for 5 min. Next, samples were run through a 0.8 % agarose gel in 1× TAE buffer for three hours at 5 V/cm to separate different topological forms of plasmid DNA. Finally the gels were strained in distilled water containing 10 μg/ml ethidium bromide for 15 min followed by de-strained in distilled water for one hour before they were photographed in UV light. […] Further, compounds not capable of stimulating topoisomerase mediated DNA cleavage while being active in the decatenation assay are also classified as topoisomerase II catalytic inhibitors.

[4] = animal studies and patients; cited from earlier work
[5] = system: extractable topoisomerase II in OC—NYH cells; test: Band depletion assay
Method: OC—NYH cells are incubated for 1 h at 37 C in RPMI 1640 with 10% of fetal calf serum with the desired compounds for test. Thereafter, whole cell lysates were obtained at 4 C. Exponentially growing cells were harvested and washed in PBS. Cells are resuspended in 0.2 mL ELB-buffer (NaCl 0.25 M, NP40 0.1%, HEPES 50 mM, EDTA 5 mM) containing aprotinin 1 μg/ml, leupeptin 1 μg/ml, DTT 1M and PMSF 0.3 mM and lysed for 30 min. Pellets are spun down at 20000×g for 20 min. The protein concentration of the supernatants is measured, and the supernatants are diluted with an equal volume of glycerol.
After heating the nuclear extracts for 5 min at 95 C, the sample is immediately loaded on a 7% SDS-PAGE gel containing 5% glycerol. Thereafter, all steps are performed at RT. The separated proteins are transferred to Trans-Blot® Nitrocellulose, in a Mini Trans-blot® Electrophoretic Transfer Cell with 25 mM Tris, 192 mM glycine and 205 v/v methanol, pH 8.3 at 210 mA for 1 h. Membranes are blocked in 10% milk in TBS-T for 1 h and probed with either topoisomerase II as (1:1000) 1 h. Horseradish-peroxidase-conjugated donkey-antirabbit antibodies are used as secondary antibodies. The blots are developed using ECL™reagent 1 min and thereafter exposed on films for 5 min. Quantification of can be made by densitometric scanning.

[6] = system: NCI-H69, NCI-H69/DAU and NCI-H69/VP; test: Clonogenic assay on NCI-H69 and multi drug resistant derivatives; assay type: cell-based, human; details: NCI-H69 versus NCI-H69/DAU and NCI-H69/VP
Source text: Further corroboration of catalytic inhibitory activity of compounds of formula M was found in clonogenic assays on human lung cancer cell lines H69/dau and H69/VP because no resistance to compounds of formula M was found in these cell lines which are selected to be daunorubicin and, etopside (VP-16) resistant respectively.
A 3-week clonogenic assay is used. […] Finally, the colonies are counted.

[7] = read-out: IC50, topoisomerase II decatenation
[8] = compound 75 uM, daunorubicin 0.3 uM
[9] = etoposide 50 uM, compound between 5 and 625 uM
[10] = FIG. 7, read-out: IC50, decatenation assay

T1 sequence (P11388 whole entry): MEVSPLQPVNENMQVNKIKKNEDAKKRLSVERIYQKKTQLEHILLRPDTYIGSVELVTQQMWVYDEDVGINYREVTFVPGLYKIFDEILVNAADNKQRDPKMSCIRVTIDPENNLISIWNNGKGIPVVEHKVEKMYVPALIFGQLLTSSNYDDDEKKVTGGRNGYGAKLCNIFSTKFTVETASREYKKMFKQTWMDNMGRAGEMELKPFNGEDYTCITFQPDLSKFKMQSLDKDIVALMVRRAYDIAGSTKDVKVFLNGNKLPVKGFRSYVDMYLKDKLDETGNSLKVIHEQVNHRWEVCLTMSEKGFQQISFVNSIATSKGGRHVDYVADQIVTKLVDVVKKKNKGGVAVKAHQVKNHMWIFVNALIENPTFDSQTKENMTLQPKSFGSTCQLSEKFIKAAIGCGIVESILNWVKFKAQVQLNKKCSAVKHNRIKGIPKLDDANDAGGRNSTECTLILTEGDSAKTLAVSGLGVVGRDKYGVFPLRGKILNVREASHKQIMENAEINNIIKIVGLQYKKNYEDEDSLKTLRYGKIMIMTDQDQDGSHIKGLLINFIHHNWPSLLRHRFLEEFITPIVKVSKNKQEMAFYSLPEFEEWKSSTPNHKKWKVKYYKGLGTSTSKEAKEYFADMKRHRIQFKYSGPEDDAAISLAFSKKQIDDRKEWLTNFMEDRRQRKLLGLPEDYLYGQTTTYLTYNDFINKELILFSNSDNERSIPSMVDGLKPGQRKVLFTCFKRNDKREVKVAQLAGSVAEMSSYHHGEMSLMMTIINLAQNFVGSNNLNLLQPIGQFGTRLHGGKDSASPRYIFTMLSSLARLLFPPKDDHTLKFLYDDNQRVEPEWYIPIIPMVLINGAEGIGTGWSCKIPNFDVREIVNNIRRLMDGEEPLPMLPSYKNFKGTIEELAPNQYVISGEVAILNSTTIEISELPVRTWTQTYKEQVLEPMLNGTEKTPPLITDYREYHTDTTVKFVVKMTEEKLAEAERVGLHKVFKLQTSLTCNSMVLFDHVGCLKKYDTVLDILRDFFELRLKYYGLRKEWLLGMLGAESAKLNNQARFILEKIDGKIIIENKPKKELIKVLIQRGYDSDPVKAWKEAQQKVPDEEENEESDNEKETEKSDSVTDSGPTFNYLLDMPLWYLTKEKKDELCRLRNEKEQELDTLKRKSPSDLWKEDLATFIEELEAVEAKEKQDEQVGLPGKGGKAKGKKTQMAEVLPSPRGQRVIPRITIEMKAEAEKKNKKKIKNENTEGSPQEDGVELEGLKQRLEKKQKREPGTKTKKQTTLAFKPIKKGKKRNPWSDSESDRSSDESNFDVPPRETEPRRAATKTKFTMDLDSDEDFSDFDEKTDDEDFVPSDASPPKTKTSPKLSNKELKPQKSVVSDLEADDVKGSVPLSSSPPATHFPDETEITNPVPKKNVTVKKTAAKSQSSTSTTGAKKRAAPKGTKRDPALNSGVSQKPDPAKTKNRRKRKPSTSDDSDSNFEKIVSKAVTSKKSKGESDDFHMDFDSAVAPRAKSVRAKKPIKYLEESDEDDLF

With `O=C1CC(NCCNC2CC(=O)NC2=O)C(=O)N1` (stereo not shown) [I-21, N,N′-Di-(pyrrolidine-2′,5′-dione-3′-yl)-ethylene-1,2-diamine] the protection class ([1]; compound 500 uM, VP-16 20 uM) was “+ (The + indicates, that the protection. i.e. log(number of surviving cells) is about 1.)”, the survival ([1]; compound 500 uM, VP-16 20 uM) was ≤ 1% and the LD50 ([1]; compound alone) was “LD50 = 750 uM”. For the same compound, the toxic to cells ([1]; lower pH) was “pH 7.4. Tax at lower”, the toxic to cells ([1]; pH 7.4) was “Not toxic to cells” and the “inhibition of the toxicity of the classical poisons (protection)” value (shortened to “inhibition of the toxicity … (protection)”) [1] was “Only very weak”. The “concentration from which topoisomerase II decatenation is inhibited” value [2] was “above 500 uM. IC50”, the pIC50 [2, 7] was ~3.10 and the “effect on the VP-16 induced SSBs” value (OC—NYH cells; compound from 50-500 uM) was “No effect on the VP-16”.

For `CC(CNC1CC(=O)NC1=O)NC1CC(=O)NC1=O` (stereo not shown) [I-112], the “protection against VP-16 toxicity” value [1] was “VPneg”, the protection class [1, 8] was “DAU(0.3[…]uM)+ up to (The + indicates, that the protection. i.e. log(number of surviving cells) is about 1.)” and the survival [1, 8] was ≤ 20% survival. For the same compound, the LD10 ([1]; compound alone) was “LD10 = 75 uM”, the toxic to cells ([1]; compound given alone) was “no cytotoxicity; also recorded: Not toxic to cells” and the “inhibition of the toxicity … (protection)” value [1] was “able to protect; also recorded: Inhibits the toxicity of”. For the same compound, the “inhibition of topoisomerase II catalytic activity (decatenation), in words” value (“inhibition … in words” for short) [2] was “effectively. IC50 about”, the pIC50 [2, 7] was ~4.00 and the “inhibition of VP-16 induced SSBs” value (OC—NYH cells; compound at 250 uM, FIG. 4: etoposide 3 μM) was “reversal; also recorded: Effective inhibition of”.

With `C[C@@H](CN1CC(=O)NC(=O)C1)N1CC(=O)NC(=O)C1` [ICRF-187, (+)-1,2-bis(3,5-dioxopiperazinyl-1-yl)propane, reference compound] the protection class ([1]; compound 500 uM, idarubicin 0.01 μM) was “(IDA(0.01)+ up to (The + indicates, that the protection. i.e. log(number of surviving cells) is about 1.)”, the survival ([1]; compound 500 uM, idarubicin 0.03) was ≤ 40% survival)* and the LD50 ([1]; compound alone) was 750 µM. For the same compound, the toxic to cells ([1]; compound given alone) was “no toxicity and Not”, the “inhibition of the toxicity … (protection)” value [1] was “Effective inhibitor of” and the “antagonism of etoposide induced DNA cleavage” value [3] was “cleavage. No”. For the same compound, the “inhibition … in words” value [2] was “effectively. IC50 about”, the pIC50 [2, 7] was ~4.30 and the “reversal of etoposide (VP-16) induced SSBs” value (OC—NYH cells; compound 500 μM, etoposide 3 μM (FIG. 4)) was “reversal”. For the same compound, the “inhibition of VP-16 induced SSBs” value (OC—NYH cells; compound at 200 uM) was “Effective inhibition of” and the “protection against anthracycline extravasation injuries” value [4] was “protected”.

With `CCN1C(=O)C=CC1=O` [NEM, N-ethyl-maleimide] the pIC50 [1] was 5.40, the “antagonism of etoposide induced DNA cleavage” value [3] was “capable of antagonising” and the “stimulation of topoisomerase II mediated DNA cleavage” value [3] was “does not stimulate”. The “antagonism of etoposide induced DNA cleavage” value [3, 9] was “Strong”, the “inhibition … in words” value [2] was “Very potent,” and the pIC50 [2, 10] was ~5.40. For the same compound, the pIC50 [2, 7] was 5.30 and the “DNA damage by the compound itself” value (OC—NYH cells; concentrations up to 250 uM) was “Only limited DNA”.

In the case of `CN1C(=O)C=CC1=O` [NMM, N-methyl-maleimide], the “antagonism of etoposide and daunorubicin mediated cytotoxicity” value [1] was “effectively blocked”, the pIC50 [1] was 5.40 and the “inhibition … in words” value [2] was “Very potent,”. It also gave a pIC50 [2, 10] of ~5.40 and a pIC50 [2, 7] of 5.30.

With `COc1cc([C@@H]2c3cc4c(cc3[C@@H](O[C@@H]3O[C@@H]5CO[C@@H](C)O[C@H]5[C@H](O)[C@H]3O)[C@H]3COC(=O)[C@H]23)OCO4)cc(OC)c1O` [etoposide, reference compound] the “extractable amount of topoisomerase II” value ([5]; cells treated with 100 μM) was “clearly reduced”.

In the case of `O=C1C=CC(=O)N1` [maleimide], the “band depleting effect of etoposide” value ([5]; etoposide 100 μM, compound 50 μM (FIG. 10)) was “completely lost”, the “antagonism of etoposide and daunorubicin mediated cytotoxicity” value [1] was “effectively blocked” and the survival ([1]; compound 0.5 uM, DAU 0.5 uM) was “up to 10%”. The protection class ([1]; compound 0.5 uM, VP-16 20 uM) was “(VP-16 (20 uM)+ (The + indicates, that the protection. i.e. log(number of surviving cells) is about 1.)”, the survival ([1]; compound 0.5 uM, VP-16 20 uM) was “up to 30%” and the LD50 ([1]; compound alone) was “LD50 4 uM”. For the same compound, the toxic to cells ([1]; compound given alone) was “toxic to cells in itself; also recorded: Very toxic to”, the “inhibition of poison induced cell toxicity” value ([1]; etoposide 20 μM and daunorubicin 0.3 μM (FIG. 3)) was “strong” and the “inhibition of the toxicity … (protection)” value [1] was “Effective”. The “antagonism of etoposide induced DNA cleavage” value [3] was “capable of antagonising”, the “stimulation of topoisomerase II mediated DNA cleavage” value [3] was “does not stimulate” and the “antagonism of etoposide induced DNA cleavage” value [3, 9] was “Strong”. The “cross resistance of MDR cell lines” value [6] was “No cross resistance”, the “inhibition … in words” value [2] was “Very potent,” and the pIC50 [2, 10] was ~5.70. For the same compound, the pIC50 [2, 7] was 5.70, the “antagonism of DNA damage induced by etoposide, daunorubicin or doxorubicin” value (OC—NYH cells) was “antagonize” and the “inhibition of VP-16 induced SSBs” value (OC—NYH cells; compound at 50 uM) was “antagonise; also recorded: Effective”.
